From PubChem BioAssay AID1963971 (Molecular Pharmacology Branch, DTP, NCI, 2024)

System: 953936-095-R-J2-PDC spheroids with HUVEC/MSC, viability
Experiment: Anticancer human tumor 953936-095-R-J2-PDC patient-derived cervical squamous cell carcinoma cell line growth inhibition [PI3K]
Settings: for IC50: curve of first compound; for viability, T/C: stronger effect = lower value
Text: Combinatorial screen of targeted agents with the PI3K inhibitors inavolisib, alpelisib, duvelisib, and copanlisib in multi-cell type tumor spheroids
A high-throughput screen of multi-cell type tumor spheroids was designed to identify active combinations of targeted small molecules and PI3K pathway inhibitors. Complex spheroids include a stromal component modeled by human endothelial cells (HUVEC) and fibroblasts modeled by human mesenchymal stem cells (MSCs). The concentration ranges selected for each drug and investigational agent were based upon clinically achievable concentrations if the clinical Cmax of the agent was known.
Compounds. The drugs and investigational agents: inavolisib (NSC800729), alpelisib (NSC765974), duvelisib (NSC772469), copanlisib (NSC816437), ipatasertib (NSC767898), afuresertib (NSC778305), talazoparib (NSC767125), sapanisertib (NSC764658), selumetinib (NSC741078), tovorafenib (DAY101, NSC766906), vemurafenib (NSC761431), ravoxertinib (NSC781343), sotorasib (NSC818433), MRTX1133 (NSC 836407), abemaciclib (NSC 768073), palbociclib (NSC758247), venetoclax (NSC 766270), SY5609 (NSC837396), enzalutamide (NSC755605), and darolutamide (NSC825331), were obtained from the National Cancer Institute (NCI) Developmental Therapeutics Program Chemical Repository. The FDA-approved anticancer drug set is available from the NCI Developmental Therapeutics Program. […] The stock solutions were prepared in dimethyl sulfoxide (DMSO, Sigma-Aldrich, St. Louis, MO, cat. D2650) at 800-fold the tested concentration and stored at -70 degrees C prior to their use. All drugs and investigational agents were tested over a range starting from a high concentration at or near the clinical Cmax and decreasing in half-log increments. If the clinical Cmax for an agent had not been determined, the highest concentration tested was 10 microM.
Cell Culture. All cells were maintained in an incubator at 37 degrees C and 5% CO2 with 95% humidity. The PDC lines were cultured according to standard operating procedures established by the NCI PDMR (https://pdmr.cancer.gov/sops/default.htm). All PDCs were thawed and cultured in Matrigel-coated flasks prepared with a working solution of 1X Ham's F-12 nutrient mix, without supplementation (Invitrogen, Waltham, MA, cat. 11765054), 100 U/mL penicillin-streptomycin (Invitrogen, cat. 15140122), and 2.5% Matrigel (Corning Inc., Corning, NY, cat. 354248) for the first three passages. The 354836-022-R-J1-PDC, 475296-252-R-J1-PDC, and 997726-040-R-J2-PDC lines were cultured in 6A media, which includes advanced DMEM/F-12 (Thermo Fisher Scientific, cat. 12634028), 10 mM HEPES (Thermo Fisher Scientific, cat. 15630080), 1X GlutaMAX supplement (Thermo Fisher Scientific, cat. 35050061), 0.1 mg/mL primocin (InvivoGen, San Diego, CA, cat. ant-pm-2), 10% defined fetal bovine serum, heat inactivated (HyClone Laboratories Inc., Logan, UT, cat. SH30070.03HI), 50% L-WRN conditioned media (ATCC, cat. CRL-3276), 1.25 mM N-Acetyl-L-cysteine (Sigma-Aldrich, cat. A9165), 10 mM nicotinamide (Sigma-Aldrich, cat. N0636), 1X B-27 supplement (Thermo Fisher Scientific, cat. 17504044), 1X N-2 supplement (Thermo Fisher Scientific, cat. 17502048), and 10 microM Y-27632 dihydrochloride (Tocris Bioscience, Bristol, United Kingdom, cat. 1254). The 624824-186-R-J2-PDC line was cultured in 6C/Colon 1B media, which includes all 6A media components plus 50 ng/mL human EGF recombinant protein (Thermo Fisher Scientific, cat. PHG0311). […]

[1] = second compound 0.00316 µM, first compound 0.0316 µM
[2] = second compound 0.00316 µM, first compound 0.1 µM
[3] = second compound 0.00316 µM, first compound 0.316 µM
[4] = second compound 0.00316 µM, first compound 1 µM
[5] = second compound 0.00316 µM, first compound 3.16 µM
[6] = second compound 0.00316 µM, first compound 10 µM
[7] = second compound 0.01 µM, first compound 0.0316 µM
[8] = second compound 0.01 µM, first compound 0.1 µM
[9] = second compound 0.01 µM, first compound 0.316 µM
[10] = second compound 0.01 µM, first compound 1 µM
[11] = second compound 0.01 µM, first compound 3.16 µM
[12] = second compound 0.01 µM, first compound 10 µM
[13] = second compound 0.0316 µM, first compound 0.0316 µM
[14] = second compound 0.0316 µM, first compound 0.1 µM
[15] = second compound 0.0316 µM, first compound 0.316 µM
[16] = second compound 0.0316 µM, first compound 1 µM
[17] = second compound 0.0316 µM, first compound 3.16 µM
[18] = second compound 0.0316 µM, first compound 10 µM
[19] = second compound 0.1 µM, first compound 0.0316 µM
[20] = second compound 0.1 µM, first compound 0.1 µM
[21] = second compound 0.1 µM, first compound 0.316 µM
[22] = second compound 0.1 µM, first compound 1 µM
[23] = second compound 0.1 µM, first compound 3.16 µM
[24] = second compound 0.1 µM, first compound 10 µM
[25] = second compound 0.316 µM, first compound 0.0316 µM
[26] = second compound 0.316 µM, first compound 0.1 µM
[27] = second compound 0.316 µM, first compound 0.316 µM
[28] = second compound 0.316 µM, first compound 1 µM
[29] = second compound 0.316 µM, first compound 3.16 µM
[30] = second compound 0.316 µM, first compound 10 µM
[31] = second compound 1 µM, first compound 0.0316 µM
[32] = second compound 1 µM, first compound 0.1 µM
[33] = second compound 1 µM, first compound 0.316 µM
[34] = second compound 1 µM, first compound 1 µM
[35] = second compound 1 µM, first compound 3.16 µM
[36] = second compound 1 µM, first compound 10 µM
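Further: spheroids exposed to compounds for seven days before read-out.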

CC1(C)CCC(CN2CCN(c3ccc(C(=O)NS(=O)(=O)c4ccc(NCC5CCOCC5)c([N+](=O)[O-])c4)c(Oc4cnc5[nH]ccc5c4)c3)CC2)=C(c2ccc(Cl)cc2)C1 + CC(Nc1ccc2c(c1)OCCn1cc(N3C(=O)OCC3C(F)F)nc1-2)C(N)=O
IC50 (second compound 0.00316 µM): 6.92 µM | IC50 (second compound 0.01 µM): 8.42 µM | IC50 (second compound 0.0316 µM): 8.12 µM | IC50 (second compound 0.1 µM): > 10 µM | IC50 (second compound 0.316 µM): < 0.0316 µM | IC50 (second compound 1 µM): < 0.0316 µM | viability, T/C [1]: 88.4% | viability, T/C [2]: 89.8% | viability, T/C [3]: 90.4% | viability, T/C [4]: 100% | viability, T/C [5]: 142% | viability, T/C [6]: 25.5% | viability, T/C [7]: 90.2% | viability, T/C [8]: 88.9% | viability, T/C [9]: 92.3% | viability, T/C [10]: 93.6% | viability, T/C [11]: 115% | viability, T/C [12]: 41.9% | viability, T/C [13]: 77% | viability, T/C [14]: 74.6% | viability, T/C [15]: 75.8% | viability, T/C [16]: 75.8% | viability, T/C [17]: 85% | viability, T/C [18]: 44% | viability, T/C [19]: 57.7% | viability, T/C [20]: 53% | viability, T/C [21]: 53.1% | viability, T/C [22]: 59.4% | viability, T/C [23]: 59.5% | viability, T/C [24]: 48.3% | viability, T/C [25]: 35.7% | viability, T/C [26]: 36% | viability, T/C [27]: 33.5% | viability, T/C [28]: 31.8% | viability, T/C [29]: 32.5% | viability, T/C [30]: 36.9% | viability, T/C [31]: 22.3% | viability, T/C [32]: 24.4% | viability, T/C [33]: 21.2% | viability, T/C [34]: 22.1% | viability, T/C [35]: 22.1% | viability, T/C [36]: 21.7%

C[C@@H](NC(=O)c1ncnc(N)c1Cl)c1ncc(C(=O)Nc2cc(C(F)(F)F)c(Cl)cn2)s1 + CC(Nc1ccc2c(c1)OCCn1cc(N3C(=O)OCC3C(F)F)nc1-2)C(N)=O
IC50 (second compound 0.00316 µM): > 10 µM | IC50 (second compound 0.01 µM): > 10 µM | IC50 (second compound 0.0316 µM): > 10 µM | IC50 (second compound 0.1 µM): > 10 µM | IC50 (second compound 0.316 µM): < 0.0316 µM | IC50 (second compound 1 µM): < 0.0316 µM | viability, T/C [1]: 98.6% | viability, T/C [2]: 103% | viability, T/C [3]: 101% | viability, T/C [4]: 104% | viability, T/C [5]: 113% | viability, T/C [6]: 97.7% | viability, T/C [7]: 97.2% | viability, T/C [8]: 89.3% | viability, T/C [9]: 102% | viability, T/C [10]: 99.5% | viability, T/C [11]: 107% | viability, T/C [12]: 121% | viability, T/C [13]: 78.6% | viability, T/C [14]: 74.3% | viability, T/C [15]: 78.2% | viability, T/C [16]: 90.8% | viability, T/C [17]: 93.9% | viability, T/C [18]: 85.2% | viability, T/C [19]: 55.6% | viability, T/C [20]: 56.5% | viability, T/C [21]: 61.2% | viability, T/C [22]: 61.5% | viability, T/C [23]: 67.8% | viability, T/C [24]: 53.2% | viability, T/C [25]: 37.2% | viability, T/C [26]: 34.8% | viability, T/C [27]: 38.3% | viability, T/C [28]: 39.8% | viability, T/C [29]: 40.8% | viability, T/C [30]: 41.9% | viability, T/C [31]: 23% | viability, T/C [32]: 26.8% | viability, T/C [33]: 25.3% | viability, T/C [34]: 27.2% | viability, T/C [35]: 27.7% | viability, T/C [36]: 24.8%
